The data set in a line: physchem. As to conditions: octanol/water, pH 7.4.

Description: 1-octanol/aqueous buffer solution partition coefficient, log D of the compound at pH 7.4 by UV-HPLC method

By logD is commonly meant the decadic logarithm of the distribution of all forms, ionised or not, between an organic phase and buffer at a given pH. A low value points to a more hydrophilic compound. In turn, `CCC(NC(=O)N1CC(=O)Nc2cccnc21)c1ccc(N2CCC2)cc1` (configuration not stated) had a pH-dependent lipophilicity (logD) of 3.13.
To `COCC(NC(=O)N1CC(=O)Nc2cc(OC)cnc21)c1ccc(C(F)(F)F)cc1` (stereo in doubt; 34) belongs 3.03.

These data come from ChEMBL document CHEMBL4038348 (J Med Chem, 2017).
